Laboratory results: PMC8744835, “Sterically Hindered Quaternary Phosphonium Salts (QPSs): Antimicrobial Activity and Hemolytic and Cytotoxic Properties” (International Journal of Molecular Sciences, 2021)

Experiments:
[1] = tested on: Bacillus cereus ATCC 10702 NCTC 8035; assay: Antimicrobial activity, serial dilution technique in Mueller–Hinton Broth 2; format: cell-based; conditions: average of three ± SD, - means non-active; for MIC / MBC: Bacillus cereus, Bc; for MIC: read-out: Minimum Inhibitory Concentration (MIC), Bc; for MBC: read-out: Minimum Bactericidal and Fungicidal Concentration (MBC, MFC), Bc
Method in brief: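 Antibacterial activity against Bacillus cereus ATCC 10702 NCTC 8035 was measured by serial dilution in Mueller–Hinton Broth 2 at a bacterial load of 3.0 × 10^5 cfu/mL. Cultures were kept at 37 °C and growth was read every 24 h for 5 days. The experiment was done three times, and MIC and bactericidal concentrations were determined.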

[2] = tested on: Staphylococcus aureus ATCC 6538P FDA 209P; assay: as above; format: cell-based; conditions: average of three ± SD, - means non-active; for MIC / MBC: Staphylococcus aureus, Sa; for MIC: read-out: Minimum Inhibitory Concentration (MIC), Sa; for MBC: read-out: Minimum Bactericidal and Fungicidal Concentration (MBC, MFC), Sa
Method in brief: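 Antimicrobial activity against Staphylococcus aureus ATCC 6538P FDA 209P was measured by serial dilution in Mueller–Hinton Broth 2 at a bacterial load of 3.0 × 10^5 cfu/mL. Cultures were incubated at 37 °C, growth was recorded every 24 h for 5 days, and the experiment was done three times.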

[3] = tested on: Enterococcus faecalis ATCC 2921; assay: as above; format: cell-based; conditions: average of three ± SD, - means non-active; for MIC / MBC: Enterococcus faecalis, ATCC2921, Ef; for MIC: read-out: Minimum Inhibitory Concentration (MIC), Ef; for MBC: read-out: Minimum Bactericidal and Fungicidal Concentration (MBC, MFC), Ef
Method in brief: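 Antibacterial activity against Enterococcus faecalis ATCC 2921 was assessed by serial dilution in Mueller–Hinton Broth 2 with a bacterial load of 3.0 × 10^5 cfu/mL. Cultures were incubated at 37 °C, with growth recorded every 24 h for 5 days, and the experiment was performed three times.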

[4] = tested on: human erythrocytes; assay: Hemolytic activity; format: cell-based; conditions: red blood cells
Source text: An important characteristic when assessing the biological activity of new chemical compounds is their cytotoxic effect on eukaryotic cells. The ability of an investigated compound to cause the destruction of human erythrocytes illustrates its toxic effect on the internal environment. The hemolysis assay is a simple screening test that can help in the study of cytotoxicity in more complex models. Cell lines obtained from various human organs and tissues that allow for adequate estimation of the effects of new potential drugs on cell metabolism can serve as experimental models.
The hemolytic activity of the QPSs was estimated by comparing the optical density of a solution containing the test compound with that of blood at 100% hemolysis. The experiments were carried out as previously described.

[5] = tested on: Chang liver cell line; assay: Cytotoxicity assay (Cytell Cell Imaging, DAPI/propidium iodide); format: cell-based, human; conditions: for IC50: Homo sapiens, Chang liver, read-out: IC50 (concentration that causes the death of 50% of the cells), Chang liver cells; for IC50 (concentration that causes the death of 50% of the cells): Chang liver cells
[6] = tested on: methicillin-resistant S. aureus MRSA-2; assay: Antimicrobial activity, serial dilution technique in Mueller–Hinton Broth 2; format: cell-based, Staphylococcus aureus; conditions: - means non-active
Method in brief: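 Antimicrobial activity against methicillin-susceptible Staphylococcus aureus MRSA-2, a beta-lactam-resistant clinical isolate from a sinusitis patient at the Republican Clinical Hospital (Kazan), was assessed by serial dilution in Mueller–Hinton Broth 2. The inoculum was 3.0 × 10^5 cfu/mL. Cultures were incubated at 37 °C and read every 24 h for 5 days, in three repeat experiments.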

[7] = tested on: Escherichia coli ATCC 25922; assay: as above; format: cell-based; conditions: average of three ± SD, - means non-active; for MIC: Escherichia coli, ATCC25922, Ec, read-out: Minimum Inhibitory Concentration (MIC), Ec
Method in brief: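 Compounds were serially diluted in Mueller–Hinton Broth 2 and inoculated at 3.0 × 10^5 cfu/mL. Cultures were then incubated at 37 °C with growth recorded daily for 5 days. The MIC was taken as the minimum concentration inhibiting growth, from three experiments.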

[8] = tested on: Escherichia coli ATCC 25922; assay: as above; format: cell-based; conditions: average of three ± SD, - means non-active; for MBC: Escherichia coli, ATCC25922, Ec, read-out: Minimum Bactericidal and Fungicidal Concentration (MBC, MFC), Ec
[9] = tested on: methicillin-resistant S. aureus MRSA-1; assay: as above; format: cell-based, Staphylococcus aureus; conditions: - means non-active; for Minimum Inhibitory Concentration (MIC), MRSA-1 / MIC: MRSA-1 (resistant to fluoroquinolones and beta-lactams); for MIC: Staphylococcus aureus, MRSA, read-out: Minimum Inhibitory Concentration (MIC), MRSA-1
Method in brief: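 Antimicrobial activity against methicillin-susceptible Staphylococcus aureus MRSA-1, a hospital isolate from a chronic tonsillitis patient that is resistant to fluoroquinolones and beta-lactams, was determined by serial dilution in Mueller–Hinton Broth 2. The bacterial load was 3.0 × 10^5 cfu/mL, incubation was at 37 °C, and growth was recorded every 24 h for 5 days.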

[10] = tested on: Pseudomonas aeruginosa ATCC 9027; assay: as above; format: cell-based; conditions: average of three ± SD, - means non-active
[11] = tested on: Trichophyton mentagrophytes var. gypseum 1773; assay: Fungicidal activity, serial dilution technique; format: cell-based; conditions: Tm; average of three ± SD; - means non-active
Method in brief: (§1)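 Inoculum 3.0 × 10^5 cfu/mL; serial dilution, MH Broth 2; 37 °C; read q24 h × 5 d; MIC = lowest inhibitory conc.; n = 3.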

[12] = tested on: Candida albicans ATCC 10231; assay: Fungicidal activity, serial dilution technique; format: cell-based; conditions: average of three ± SD, - means non-active
Method in brief: as §1

[13] = MRSA-2 (resistant to beta-lactams)

Minimum Inhibitory Concentration (MIC), MRSA-2 [6, 13] [µg/mL]	Minimum Inhibitory Concentration (MIC), Bc [1] [µg/mL]	SMILES	MIC [2] [µg/mL]	MIC [3] [µg/mL]	HC50 (concentration that causes 50% hemolysis of erythrocytes) [4] [µg/mL]	IC50 [5] [µg/mL]	MBC [2] [µg/mL]	IC50 (concentration that causes the death of 50% of the cells) [5] [µg/mL]	MIC [7] [µg/mL]	MBC [8] [µg/mL]	Minimum Bactericidal and Fungicidal Concentration (MBC, MFC), Sa [2] [µg/mL]	MBC [3] [µg/mL]	also measured
		CCCCCCC[P+](C(C)(C)C)(C(C)(C)C)C(C)(C)C [Compound 7a]	62.5 ± 5.5	125	> 125	> 100							MIC [1]: 125 ± 10 µg/mL
		CCCCCCC[P+](C(C)(C)C)(C(C)(C)C)C(C)(C)C [Compound 7b]			> 125		62.5	> 100					
		CCCCCCCC[P+](C(C)(C)C)(C(C)(C)C)C(C)(C)C [Compound 8a]		62.5	> 125	> 100	62.5		125	125			MIC ([6]; Staphylococcus aureus, MRSA, MRSA-2 (resistant to beta-lactams), read-out: Minimum Inhibitory Concentration (MIC), MRSA-2): 31.3 µg/mL; MIC [1]: 31.3 µg/mL
		CCCCCCCC[P+](C(C)(C)C)(C(C)(C)C)C(C)(C)C [Compound 8b]			> 125			> 100			31.3	125	Minimum Inhibitory Concentration (MIC), MRSA-1 [9]: 31.3 µg/mL; Minimum Inhibitory Concentration (MIC), Sa [2]: 31.3 µg/mL
		CCCCCCCCC[P+](C(C)(C)C)(C(C)(C)C)C(C)(C)C [Compound 9a]	7.8	62.5	> 125	> 100	15.6		125	125		125	MIC [9]: 7.8 µg/mL; MBC [1]: 125 µg/mL
1.9 ± 0.1	15.6 ± 1.3	CCCCCCCCCCCCCCCCCCCC[P+](C(C)(C)C)(C(C)(C)C)C(C)(C)C [Compound 20a]	3.9 ± 0.2	3.9 ± 0.2			3.9 ± 0.2		62.5 ± 5.5	62.5 ± 5.5		7.8 ± 0.6	MBC ([6]; Staphylococcus aureus, MRSA, MRSA-2, read-out: Minimum Bactericidal and Fungicidal Concentration (MBC, MFC), MRSA-2): 15.6 ± 1.2 µg/mL; Minimum Bactericidal and Fungicidal Concentration (MBC, MFC), MRSA-1 [9]: 31.3 ± 2.7 µg/mL; MIC [9]: 7.8 ± 0.6 µg/mL; Minimum Inhibitory Concentration (MIC), Pa [10]: 31.3 ± 2.4 µg/mL; MBC ([10]; Pseudomonas aeruginosa, ATCC9027, Pa, read-out: Minimum Bactericidal and Fungicidal Concentration (MBC, MFC), Pa): 125 ± 11 µg/mL; MBC [1]: 31.3 ± 2.6 µg/mL; Minimum Bactericidal and Fungicidal Concentration (MBC, MFC), Tm [11]: 31.3 ± 2.5 µg/mL; Minimum Inhibitory Concentration (MIC), Tm [11]: 31.3 ± 2.3 µg/mL; Minimum Inhibitory Concentration (MIC), Ca ([12]; Ca): 31.3 ± 2.5 µg/mL; MBC ([12]; Candida albicans, ATCC10231, Ca, read-out: Minimum Bactericidal and Fungicidal Concentration (MBC, MFC), Ca): 62.5 ± 5.7 µg/mL
7.8 ± 0.6	62.5 ± 5.5	CCCCCCCCCCCCCCCCCCCC[P+](C(C)(C)C)(C(C)(C)C)C(C)(C)C [Compound 20b]									3.9 ± 0.3		Minimum Bactericidal and Fungicidal Concentration (MBC, MFC), MRSA-2 ([6]; MRSA-2): 7.8 ± 0.7 µg/mL; Minimum Inhibitory Concentration (MIC), MRSA-1 [9]: 15.6 ± 1.3 µg/mL; Minimum Bactericidal and Fungicidal Concentration (MBC, MFC), MRSA-1 [9]: 15.6 ± 1.2 µg/mL; Minimum Inhibitory Concentration (MIC), Pa [10]: 125 ± 11 µg/mL; Minimum Inhibitory Concentration (MIC), Sa [2]: 3.9 ± 0.2 µg/mL; Minimum Bactericidal and Fungicidal Concentration (MBC, MFC), Ef [3]: 15.6 ± 1.3 µg/mL; Minimum Inhibitory Concentration (MIC), Ef [3]: 7.8 ± 0.6 µg/mL; Minimum Inhibitory Concentration (MIC), Ec [7]: 62.5 ± 5.7 µg/mL; Minimum Bactericidal and Fungicidal Concentration (MBC, MFC), Ec [8]: 62.5 ± 5.5 µg/mL; Minimum Bactericidal and Fungicidal Concentration (MBC, MFC), Tm [11]: 250 ± 18 µg/mL; Minimum Inhibitory Concentration (MIC), Tm [11]: 250 ± 18 µg/mL; Minimum Bactericidal and Fungicidal Concentration (MBC, MFC), Ca ([12]; Ca): 31.3 ± 2.1 µg/mL; Minimum Inhibitory Concentration (MIC), Ca ([12]; Ca): 15.6 ± 1.3 µg/mL

SMILES	Minimum Inhibitory Concentration (MIC), MRSA-2 [6, 13] [µg/mL]	Minimum Inhibitory Concentration (MIC), Bc [1] [µg/mL]	MIC [2] [µg/mL]	MIC [3] [µg/mL]	HC50 (concentration that causes 50% hemolysis of erythrocytes) [4] [µg/mL]	IC50 [5] [µg/mL]	MBC [2] [µg/mL]	IC50 (concentration that causes the death of 50% of the cells) [5] [µg/mL]	MIC [7] [µg/mL]	MBC [8] [µg/mL]	Minimum Bactericidal and Fungicidal Concentration (MBC, MFC), Sa [2] [µg/mL]	MBC [3] [µg/mL]	also measured
CCCCCCCCC[P+](C(C)(C)C)(C(C)(C)C)C(C)(C)C [Compound 9b]	31.3	31.3			> 125			> 100			15.6		Minimum Bactericidal and Fungicidal Concentration (MBC, MFC), Ef [3]: 125 µg/mL; Minimum Inhibitory Concentration (MIC), Ef [3]: 31.3 µg/mL; Minimum Inhibitory Concentration (MIC), Ec [7]: 250 µg/mL; Minimum Bactericidal and Fungicidal Concentration (MBC, MFC), Ec [8]: 250 µg/mL
